Drawing on the METLIN SMRT retention time set (Domingo-Almenara et al. 2019), this text covers RP-LC retention time for 80 compounds.

This data set is described as follows: gradient 5% acetonitrile 3 min, to 50% in 2 min, to 85% in 15 min, held 3 min, 100 µL/min. The conditions noted are these: column: Zorbax Extend-C18 2.1 x 50 mm; eluents: water / acetonitrile, 0.1% formic acid. The method, boiled down:
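Pure standards were run in mixtures of ~100 molecules by HPLC coupled to a quadrupole time-of-flight mass spectrometer. The column was a Zorbax Extend-C18 (2.1 × 50 mm, 1.8 μm) at 100 μL/min, with water and acetonitrile each containing 0.1% formic acid, in positive and negative ionization mode. Dead and dwell volumes were 40 μL and 900 μL. Retention time was taken from computationally picked adduct peaks, each manually inspected, with data collected over 3 months.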
As for `CCN(CC)C(=O)Cn1nc2cc(-c3ccc(OC)cc3)nc(C)n2c1=O`, the RP-LC retention time came to 842 s.

With `COCc1nnc(C(=O)Nc2cccc(C(=O)NCCc3c[nH]c4ccc(Cl)cc34)c2)s1`, the RP-LC retention time stood at 896 s.

In the case of `CCN(CC)Cc1cc2[nH]c3c4ccc(Cl)cc4ncc3c2cc1OC`, the RP-LC retention time came out at 747 s.

The compound `CCCn1cnc2cc(CNS(=O)(=O)c3ccc(F)cc3)ccc21` gave an RP-LC retention time of 635 s.

Consider `C=CCn1c(=O)c2ccccc2n(Cc2nc(-c3ccc(OC)cc3)no2)c1=O`, for which the RP-LC retention time was found to be 1020 s.

The compound `CCc1ccc(CNC(=O)Cn2c(C)nc3onc(C)c3c2=O)cc1` returned an RP-LC retention time of 821 s.

Regarding `COCCNC(=O)c1ccccc1-c1ocnc1C(=O)OC`, the RP-LC retention time was 611 s.

In the case of `O=C(c1ccoc1)N1CCCn2cc(-c3ccccc3F)nc21`, the RP-LC retention time worked out at 649 s.

`O=C(Nc1cccc(-c2nnc3n2CCCC3)c1)C1(c2ccccc2)CC1` came in with an RP-LC retention time of 719 s.

For the compound `Cc1ccc(-c2ccc(-n3nc(C)c(S(=O)(=O)NCC(C)C)c3C)nn2)cc1`, the RP-LC retention time is 1160 s.

The compound `CCCN1CCN(c2cc(C(=O)O)c3cc(NS(=O)(=O)c4ccc(F)c(F)c4)ccc3n2)CC1` displayed an RP-LC retention time of 651 s.

For `CCCn1cnc2cc(CNC(=O)c3ccc(-n4c(C)ccc4C)cc3)ccc21`, the RP-LC retention time is 722 s.

The compound `CN1CCN(CCCNC(=O)c2ccc(NC(=O)C3=CSCCO3)cc2)CC1` came in with an RP-LC retention time of 876 s.

Take `COC(=O)c1ccsc1NC(=O)Cc1ccc2c(c1)OCO2`: the RP-LC retention time worked out at 888 s.

`Cc1cc(C)cc(NS(=O)(=O)c2cc(-c3nc(C(C)C)cs3)cs2)c1` had an RP-LC retention time of 1210 s.

Consider `Cc1cccc(-c2noc(Cn3ccn(-c4ccccc4)c(=O)c3=O)n2)c1`, for which the RP-LC retention time amounted to 838 s.

For `O=C(NCCn1c(-c2ccc(F)cc2)nc2cccnc21)NCc1ccccc1`, the RP-LC retention time amounted to 684 s.

For the compound `COc1ccc(-n2/c(=N/C(=S)N(C)C)ss/c2=N\C(=S)N(C)C)cc1`, the RP-LC retention time came out at 1210 s.

`CCc1nnc(NC(=O)c2ccc(N3C(=O)CCC3=O)cc2)s1` displayed an RP-LC retention time of 627 s.

On to `COc1cc(OC)c(NC(=O)Cn2c(=O)n(-c3cccc(C)c3)c(=O)c3c2cc(C)n3C)cc1Cl`, for which the RP-LC retention time worked out at 871 s.

On to `CSc1ccc(-c2nc3cnccn3c2Nc2ccc(C(=O)O)cc2)cc1`, for which the RP-LC retention time is 719 s.

In the case of `COc1ccc(CC(=O)NCCc2c[nH]c3ccc(Cl)cc23)cc1`, the RP-LC retention time was 848 s.

As for `CCc1cccc(NC(=O)N2CCc3cn(CC)c4cccc(c34)C2)c1`, the RP-LC retention time was 1050 s.

In turn, `CCOc1ccc(CNC(=O)c2cnc(N3CCSCC3)nc2N)cc1` had an RP-LC retention time of 716 s.

`CCc1ccccc1NC(=O)C1CCCN(c2nc3ccccc3nc2C(F)(F)F)C1` (stereo not given): the RP-LC retention time came to 1200 s.

With `CCOc1nc2ccccc2nc1N1CCCC(C(=O)Nc2ccc(Br)c(C)c2)C1` (stereo not given), the RP-LC retention time was 1420 s.

As to `CCc1nc2c(c(=O)n1CC(=O)Nc1ccccc1)CN(Cc1ccccc1)CC2`, the RP-LC retention time was 638 s.

The compound `Cc1ccc(S(=O)(=O)N2C[C@@H](F)C[C@H]2C(=O)N2CCOCC2)cc1F` yielded an RP-LC retention time of 710 s.

`COc1ccc(-c2[nH]ncc2CN2CCC3(CCC3O)CC2)cc1` (stereo not given) came in with an RP-LC retention time of 584 s.

`COC(=O)c1ccc2nc(NC(=O)c3ccccc3S(C)(=O)=O)sc2c1` returned an RP-LC retention time of 744 s.

As to `COc1ccc(OCC(O)CN(CCO)CC(O)Cn2ccc3ccccc32)cc1` (stereo not given), the RP-LC retention time is 591 s.

`COc1ccc(N2CCN(CCNC(=O)c3ccc(Br)o3)CC2)cc1` had an RP-LC retention time of 583 s.

For the compound `O=C(NCc1ccccc1F)c1ccc2c(c1)Sc1ncccc1C(=O)N2C1CC1`, the RP-LC retention time is 794 s.

`CC(=O)N1c2ccc(S(=O)(=O)N3CCCCC3)cc2CC1C(=O)Nc1c(C)cc(C)cc1C` (stereo not given): the RP-LC retention time is 955 s.

For the compound `CCc1nnc(-c2ccc3ccn(CC(=O)Nc4ccc(Cl)cn4)c3c2)o1`, the RP-LC retention time came to 843 s.

`O=C(O)/C=C/c1ccc(Cn2ccnc2)cc1` yielded an RP-LC retention time of 612 s.

`Fc1ccc(CN2CCc3nc(N4CCOCC4)ncc3C2)cc1` yielded an RP-LC retention time of 608 s.

`CN(C)CC(O)Cn1c2ccc(Br)cc2c2cc(Br)ccc21` (stereo not given) came in with an RP-LC retention time of 782 s.

Take `Cn1c(=O)c2cc(C(=O)NCc3ccccc3Cl)sc2n(C)c1=O`: the RP-LC retention time is 795 s.

For `O=c1ccc(S(=O)(=O)N2CCOCC2)cn1Cc1cc(F)cc(F)c1`, the RP-LC retention time worked out at 791 s.

As for `Cn1c(=O)sc2cc(S(=O)(=O)N3CCC(C(=O)NC4CC4)CC3)ccc21`, the RP-LC retention time came out at 670 s.

In turn, `O=C(CSc1ccncc1)N1CC2CN(S(=O)(=O)c3cccc(F)c3)CC(C1)O2` registered an RP-LC retention time of 600 s.

For the compound `N#Cc1cccc(CN2CCCC(c3nc(-c4ccncc4)n[nH]3)C2)c1` (stereo not given), the RP-LC retention time came out at 494 s.

`O=C(N[C@H]1C[C@@H]2C[C@H]1CN2S(=O)(=O)c1cccc2cccnc12)c1ccccc1`: the RP-LC retention time stood at 792 s.

Compound `Cc1ccc2cc(CCC(=O)N3CCN(c4ncccn4)CC3)c(=O)[nH]c2c1` displayed an RP-LC retention time of 670 s.

Compound `CN(CC#N)C(=O)c1cc2c(Cl)ccc3c2n1CCO3` yielded an RP-LC retention time of 865 s.

Turning to `O=C(NC1CCN(c2cc(-c3ccc(F)cc3)[nH]n2)C1)c1ccc(F)c(F)c1` (stereo not given), the RP-LC retention time is 807 s.

Consider `Cc1ccc(S(=O)(=O)N2CCC(C(=O)NCc3csc(-c4ccccc4)n3)CC2)cc1C`, for which the RP-LC retention time is 989 s.

Consider `Cc1cccc(N2CCN(S(=O)(=O)c3ccc4c(c3)CCCC(=O)N4)CC2)c1C`, for which the RP-LC retention time amounted to 983 s.

Consider `O=C(c1c[nH]c2ccccc12)N1CCC2(CC1)NC(=O)N(Cc1ccccc1)C2=O`, for which the RP-LC retention time amounted to 750 s.

In the case of `CCOC(=O)Nc1nc2c(s1)CN(S(=O)(=O)c1c(C)noc1C)CC2`, the RP-LC retention time was 747 s.

As for `CN1C(=O)c2cc(S(=O)(=O)NCc3ccc(F)cc3)ccc2Oc2cccnc21`, the RP-LC retention time worked out at 951 s.

For `O=C(c1ccc(Cl)cc1)N1CCCC(c2nnc(-c3ccccc3)o2)C1` (stereo not given), the RP-LC retention time was 874 s.

Consider `Cc1cccc(N2CCN(C(=O)c3ccnc(N4CCCC4)n3)CC2)c1`, for which the RP-LC retention time stood at 894 s.

For the compound `Cn1nc(CNC(=O)c2ccc3c(c2)OCO3)c2ccccc21`, the RP-LC retention time was 760 s.

As for `COc1ccc(Nc2ncc(C(=O)O)c3ccccc23)cc1`, the RP-LC retention time was determined as 599 s.

As for `Cc1noc(N)c1-c1ccc(Cl)cc1`, the RP-LC retention time turned out to be 807 s.

For the compound `Cc1[nH]c2ccccc2c1C(=O)C(=O)NCc1ccccn1`, the RP-LC retention time turned out to be 605 s.

As for `Cc1ccc(-c2nc3c(C)cccn3c2Nc2ccc3c(c2)OCCO3)cc1`, the RP-LC retention time worked out at 721 s.

In the case of `O=C(NCc1ccc(F)cc1F)c1csc(C(=O)NC2CCCC2)n1`, the RP-LC retention time stood at 895 s.

For `COc1ccc(-c2nnc(-c3ccc(Cl)c(S(=O)(=O)N4CCCCCC4)c3)o2)cc1`, the RP-LC retention time came to 1210 s.

In turn, `CNC(=O)N1CCCC(c2cccc(C(=O)NC(C)c3ccc(F)cc3)c2)C1` (stereo not given) yielded an RP-LC retention time of 792 s.

Compound `COc1cccc(S(=O)(=O)N2CCC(c3noc(-c4cccnc4)n3)C2)c1` (stereo not given) came in with an RP-LC retention time of 846 s.

For the compound `CCCN(C)C(=O)c1ccc2nc(-c3ccccc3)cn2c1`, the RP-LC retention time is 618 s.

For `COc1ccc(NC(=O)c2cc(C)n3nc(C)cc3n2)c(C)c1`, the RP-LC retention time came out at 1040 s.

`CN1CCn2cc(S(=O)(=O)Nc3ccc(Cl)cc3)cc2C1=O`: the RP-LC retention time is 720 s.

For the compound `C=CCn1c(C)c(CC(=O)N2CCCC2)c(=O)n2nc(-c3ccc(C)cc3)nc12`, the RP-LC retention time amounted to 789 s.

Consider `Cc1c(-c2noc(-c3cccc(F)c3)n2)nnn1-c1ccccc1`, for which the RP-LC retention time came to 1090 s.

Consider `COc1cccc(-c2noc(Cn3ccn(-c4cc(C)ccc4C)c(=O)c3=O)n2)c1`, for which the RP-LC retention time worked out at 911 s.

`Cc1ccccc1-c1csc(Cc2nc(-c3ccc(Cl)cc3)no2)n1` came in with an RP-LC retention time of 1330 s.

The compound `Cc1cccc(NC(=O)N2CCC3(CC2)NC(=O)c2ccccc2O3)c1` had an RP-LC retention time of 723 s.

`CCN1C(=O)COc2ccc(-c3noc(C4CC(=O)N(c5ccccc5)C4)n3)cc21` (stereo not given) registered an RP-LC retention time of 879 s.

In turn, `Cc1nc(-c2cnccn2)n(CC(=O)Nc2ccc(F)c(Cl)c2)c(=O)c1C` had an RP-LC retention time of 789 s.

`Cc1nn(C)c(C)c1CCC(=O)N1CCN(S(C)(=O)=O)CC1` displayed an RP-LC retention time of 543 s.

For the compound `Cc1ccc(-n2nc(C)c3c(C)c(CCC(=O)NCCc4c[nH]c5ccccc45)c(C)nc32)cc1C`, the RP-LC retention time is 1150 s.

Compound `Cc1ccc(C)c(CNC(=O)C2CCN(c3cnc4nccnc4c3)CC2)c1` came in with an RP-LC retention time of 722 s.

Compound `Cc1noc(COC2CCCN(C(=O)NCCc3ccccc3)C2)n1` (stereo not given) displayed an RP-LC retention time of 756 s.

With `Cc1cccc(NC(=O)Cn2nc3n(c2=O)CCCC3)c1C`, the RP-LC retention time stood at 632 s.

As to `CCCCN1CCN(S(=O)(=O)c2ccccc2-c2nc(-c3ccc(F)cc3)no2)CC1`, the RP-LC retention time was 752 s.

`CCOc1ccc(C2Cn3nnc(-c4nc(-c5ccccc5Cl)no4)c3CO2)cc1` (stereo not given) returned an RP-LC retention time of 1150 s.
